{
  "source": "ChEMBL document CHEMBL1649484",
  "about": "“AbaR5, a large multiple-antibiotic resistance region found in Acinetobacter baumannii” (2009)",
  "format_in_all_cases": "functional",
  "key": {"Acinetobacter baumannii [1]": {"test_system": "Acinetobacter baumannii", "test": "Antimicrobial activity against Acinetobacter baumannii 3208 expressing multiple-antibiotic resistance gene AbaR5 by […] 2 system"}, "Acinetobacter baumannii [2]": {"test_system": "Acinetobacter baumannii", "test": "Antimicrobial activity against Acinetobacter baumannii 3208 expressing multiple-antibiotic resistance gene AbaR5 by […] 2 system in presence of beta-lactamase inhibitor Tazobactam"}, "Acinetobacter baumannii [3]": {"test_system": "Acinetobacter baumannii", "test": "Antimicrobial activity against Acinetobacter baumannii 3208 expressing multiple-antibiotic resistance gene AbaR5 by […] 2 system in presence of beta-lactamase inhibitor clavulanic acid"}},
  "data": [
    {"compound": "CO/N=C(\\C(=O)N[C@@H]1C(=O)N2C(C(=O)[O-])=C(C[N+]3(C)CCCC3)CS[C@H]12)c1csc(N)n1", "note": "[CEFEPIME]", "values": [
      {"measurement": "MIC", "setting": "Acinetobacter baumannii [1]", "result": 16, "unit": "µg/mL"}
    ]},
    {"compound": "O=C(O)c1cn(C2CC2)c2cc(N3CCNCC3)c(F)cc2c1=O", "note": "[CIPROFLOXACIN]", "values": [
      {"measurement": "MIC", "setting": "Acinetobacter baumannii [1]", "result": "≥ 4", "unit": "µg/mL"}
    ]},
    {"compound": "C[C@@H](O)[C@H]1C(=O)N2C(C(=O)O)=C(S[C@@H]3CN[C@H](C(=O)N(C)C)C3)[C@H](C)[C@H]12", "note": "[MEROPENEM]", "values": [
      {"measurement": "MIC", "setting": "Acinetobacter baumannii [1]", "result": 0.5, "unit": "µg/mL"}
    ]},
    {"compound": "CCN1CCN(C(=O)N[C@@H](C(=O)N[C@@H]2C(=O)N3[C@@H]2SC(C)(C)[C@@H]3C(=O)O)c2ccccc2)C(=O)C1=O", "note": "[PIPERACILLIN]", "values": [
      {"measurement": "MIC", "setting": "Acinetobacter baumannii [2]", "result": "≤ 4", "unit": "µg/mL"}
    ]},
    {"compound": "CC1(C)S[C@@H]2[C@H](NC(=O)[C@H](C(=O)O)c3ccsc3)C(=O)N2[C@H]1C(=O)O", "note": "[TICARCILLIN]", "values": [
      {"measurement": "MIC", "setting": "Acinetobacter baumannii [3]", "result": 32, "unit": "µg/mL"}
    ]},
    {"compound": "NC[C@H]1O[C@H](O[C@H]2[C@H](O)[C@@H](O[C@H]3O[C@H](CO)[C@@H](O)[C@H](N)[C@H]3O)[C@H](N)C[C@@H]2N)[C@H](N)C[C@@H]1O", "note": "[TOBRAMYCIN]", "values": [
      {"measurement": "MIC", "setting": "Acinetobacter baumannii [1]", "result": "≤ 1", "unit": "µg/mL"}
    ]},
    {"compound": "GENTAMICIN", "values": [
      {"measurement": "MIC", "setting": "Acinetobacter baumannii [1]", "result": "> 16", "unit": "µg/mL"}
    ]}
  ]
}
